Numbers after ± are expanded uncertainties.
Test: xn = mol fraction of the nth substance listed
Settings: Liquid, Vibrating tube method

## CCCCCCCCCC [decane] + CCCCCC
352.99 K, 19000 kPa, x2 = 0.7524
  mass density: 655.43 ± 0.45 kg/m3
352.99 K, 20000 kPa, x2 = 0.0456
  mass density: 701.21 ± 0.41 kg/m3
352.99 K, 20000 kPa, x2 = 0.7524
  mass density: 656.5 ± 0.46 kg/m3
352.99 K, 21000 kPa, x2 = 0.0456
  mass density: 702.11 ± 0.42 kg/m3
352.99 K, 21000 kPa, x2 = 0.7524
  mass density: 657.54 ± 0.47 kg/m3
352.99 K, 22000 kPa, x2 = 0.0456
  mass density: 702.98 ± 0.42 kg/m3
352.99 K, 22000 kPa, x2 = 0.7524
  mass density: 658.56 ± 0.48 kg/m3
352.99 K, 23000 kPa, x2 = 0.0456
  mass density: 703.83 ± 0.43 kg/m3
352.99 K, 23000 kPa, x2 = 0.7524
  mass density: 659.55 ± 0.49 kg/m3
352.99 K, 24000 kPa, x2 = 0.0456
  mass density: 704.67 ± 0.44 kg/m3
352.99 K, 24000 kPa, x2 = 0.7524
  mass density: 660.56 ± 0.5 kg/m3
352.99 K, 25000 kPa, x2 = 0.0456
  mass density: 705.49 ± 0.45 kg/m3
352.99 K, 25000 kPa, x2 = 0.7524
  mass density: 661.49 ± 0.51 kg/m3
353 K, 1000 kPa, x2 = 0.2185
  mass density: 673.09 ± 0.26 kg/m3
353 K, 2000 kPa, x2 = 0.2185
  mass density: 674.25 ± 0.27 kg/m3
353 K, 3000 kPa, x2 = 0.2185
  mass density: 675.39 ± 0.28 kg/m3
353 K, 4000 kPa, x2 = 0.2185
  mass density: 676.51 ± 0.28 kg/m3
353 K, 5000 kPa, x2 = 0.2185
  mass density: 677.65 ± 0.29 kg/m3
353 K, 6000 kPa, x2 = 0.2185
  mass density: 678.75 ± 0.3 kg/m3
353 K, 7000 kPa, x2 = 0.2185
  mass density: 679.82 ± 0.31 kg/m3
353 K, 8000 kPa, x2 = 0.2185
  mass density: 680.92 ± 0.32 kg/m3
353 K, 9000 kPa, x2 = 0.2185
  mass density: 681.98 ± 0.32 kg/m3
353 K, 10000 kPa, x2 = 0.2185
  mass density: 683.03 ± 0.33 kg/m3
353 K, 11000 kPa, x2 = 0.2185
  mass density: 684.07 ± 0.34 kg/m3
353 K, 12000 kPa, x2 = 0.2185
  mass density: 685.08 ± 0.35 kg/m3
353 K, 13000 kPa, x2 = 0.2185
  mass density: 686.09 ± 0.36 kg/m3
353 K, 14000 kPa, x2 = 0.2185
  mass density: 687.09 ± 0.37 kg/m3
353 K, 15000 kPa, x2 = 0.2185
  mass density: 688.08 ± 0.37 kg/m3
353 K, 16000 kPa, x2 = 0.2185
  mass density: 689.03 ± 0.38 kg/m3
353 K, 17000 kPa, x2 = 0.2185
  mass density: 689.97 ± 0.39 kg/m3
353 K, 18000 kPa, x2 = 0.2185
  mass density: 690.9 ± 0.4 kg/m3
353 K, 19000 kPa, x2 = 0.2185
  mass density: 691.79 ± 0.41 kg/m3
353 K, 20000 kPa, x2 = 0.2185
  mass density: 692.7 ± 0.42 kg/m3
353 K, 21000 kPa, x2 = 0.2185
  mass density: 693.59 ± 0.43 kg/m3
353 K, 22000 kPa, x2 = 0.2185
  mass density: 694.47 ± 0.43 kg/m3
353 K, 23000 kPa, x2 = 0.2185
  mass density: 695.35 ± 0.44 kg/m3
353 K, 24000 kPa, x2 = 0.2185
  mass density: 696.22 ± 0.45 kg/m3
353 K, 25000 kPa, x2 = 0.2185
  mass density: 697.07 ± 0.46 kg/m3
353.01 K, 1000 kPa, x2 = 0.4968
  mass density: 654.56 ± 0.27 kg/m3
353.01 K, 2000 kPa, x2 = 0.4968
  mass density: 655.89 ± 0.28 kg/m3
353.01 K, 3000 kPa, x2 = 0.4968
  mass density: 657.2 ± 0.28 kg/m3
353.01 K, 4000 kPa, x2 = 0.4968
  mass density: 658.52 ± 0.29 kg/m3
353.01 K, 5000 kPa, x2 = 0.4968
  mass density: 659.83 ± 0.3 kg/m3
353.01 K, 6000 kPa, x2 = 0.4968
  mass density: 661.12 ± 0.31 kg/m3
353.01 K, 7000 kPa, x2 = 0.4968
  mass density: 662.3 ± 0.32 kg/m3
353.01 K, 8000 kPa, x2 = 0.4968
  mass density: 663.52 ± 0.33 kg/m3
353.01 K, 9000 kPa, x2 = 0.4968
  mass density: 664.66 ± 0.33 kg/m3
353.01 K, 10000 kPa, x2 = 0.4968
  mass density: 665.8 ± 0.34 kg/m3
353.01 K, 11000 kPa, x2 = 0.4968
  mass density: 666.94 ± 0.35 kg/m3
353.01 K, 12000 kPa, x2 = 0.4968
  mass density: 668.05 ± 0.36 kg/m3
353.01 K, 13000 kPa, x2 = 0.4968
  mass density: 669.13 ± 0.37 kg/m3
353.01 K, 14000 kPa, x2 = 0.4968
  mass density: 670.21 ± 0.38 kg/m3
353.01 K, 15000 kPa, x2 = 0.4968
  mass density: 671.26 ± 0.39 kg/m3
353.01 K, 16000 kPa, x2 = 0.4968
  mass density: 672.3 ± 0.4 kg/m3
353.01 K, 17000 kPa, x2 = 0.4968
  mass density: 673.3 ± 0.41 kg/m3
353.01 K, 18000 kPa, x2 = 0.4968
  mass density: 674.32 ± 0.42 kg/m3
353.01 K, 19000 kPa, x2 = 0.4968
  mass density: 675.27 ± 0.43 kg/m3
353.01 K, 20000 kPa, x2 = 0.4968
  mass density: 676.25 ± 0.43 kg/m3
353.01 K, 21000 kPa, x2 = 0.4968
  mass density: 677.22 ± 0.44 kg/m3
353.01 K, 22000 kPa, x2 = 0.4968
  mass density: 678.15 ± 0.45 kg/m3
353.01 K, 23000 kPa, x2 = 0.4968
  mass density: 679.08 ± 0.46 kg/m3
353.01 K, 24000 kPa, x2 = 0.4968
  mass density: 680 ± 0.47 kg/m3
353.01 K, 25000 kPa, x2 = 0.4968
  mass density: 680.91 ± 0.48 kg/m3
362.59 K, 1000 kPa, x2 = 0.8991
  mass density: 607.57 ± 0.28 kg/m3
362.59 K, 2000 kPa, x2 = 0.8991
  mass density: 609.29 ± 0.29 kg/m3
362.59 K, 3000 kPa, x2 = 0.8991
  mass density: 610.97 ± 0.3 kg/m3
362.59 K, 4000 kPa, x2 = 0.8991
  mass density: 612.62 ± 0.31 kg/m3
362.59 K, 5000 kPa, x2 = 0.8991
  mass density: 614.24 ± 0.32 kg/m3
362.59 K, 6000 kPa, x2 = 0.8991
  mass density: 615.83 ± 0.33 kg/m3
362.59 K, 7000 kPa, x2 = 0.8991
  mass density: 617.37 ± 0.34 kg/m3
362.59 K, 8000 kPa, x2 = 0.8991
  mass density: 618.92 ± 0.35 kg/m3
362.59 K, 9000 kPa, x2 = 0.8991
  mass density: 620.4 ± 0.4 kg/m3
362.59 K, 10000 kPa, x2 = 0.8991
  mass density: 621.89 ± 0.37 kg/m3
362.59 K, 11000 kPa, x2 = 0.8991
  mass density: 623.32 ± 0.38 kg/m3
362.59 K, 12000 kPa, x2 = 0.8991
  mass density: 624.72 ± 0.39 kg/m3
362.59 K, 13000 kPa, x2 = 0.8991
  mass density: 626.12 ± 0.4 kg/m3
362.59 K, 14000 kPa, x2 = 0.8991
  mass density: 627.49 ± 0.41 kg/m3
362.59 K, 15000 kPa, x2 = 0.8991
  mass density: 628.8 ± 0.4 kg/m3
362.59 K, 16000 kPa, x2 = 0.8991
  mass density: 630.11 ± 0.44 kg/m3
362.59 K, 17000 kPa, x2 = 0.8991
  mass density: 631.37 ± 0.45 kg/m3
362.59 K, 18000 kPa, x2 = 0.8991
  mass density: 632.62 ± 0.46 kg/m3
362.59 K, 19000 kPa, x2 = 0.8991
  mass density: 633.83 ± 0.47 kg/m3
362.59 K, 20000 kPa, x2 = 0.8991
  mass density: 635.04 ± 0.48 kg/m3
362.59 K, 21000 kPa, x2 = 0.8991
  mass density: 636.21 ± 0.49 kg/m3
362.59 K, 22000 kPa, x2 = 0.8991
  mass density: 637.35 ± 0.5 kg/m3
362.59 K, 23000 kPa, x2 = 0.8991
  mass density: 638.45 ± 0.51 kg/m3
362.59 K, 24000 kPa, x2 = 0.8991
  mass density: 639.52 ± 0.53 kg/m3
362.59 K, 25000 kPa, x2 = 0.8991
  mass density: 640.65 ± 0.54 kg/m3
362.91 K, 1000 kPa, x2 = 0.0456
  mass density: 674.5 ± 0.26 kg/m3
362.91 K, 2000 kPa, x2 = 0.0456
  mass density: 675.7 ± 0.27 kg/m3
362.91 K, 3000 kPa, x2 = 0.0456
  mass density: 676.88 ± 0.27 kg/m3
362.91 K, 4000 kPa, x2 = 0.0456
  mass density: 678.04 ± 0.28 kg/m3
362.91 K, 5000 kPa, x2 = 0.0456
  mass density: 679.18 ± 0.29 kg/m3
362.91 K, 6000 kPa, x2 = 0.0456
  mass density: 680.32 ± 0.3 kg/m3

Source: the NIST ThermoML archive (doi:10.1021/je200721d)
